The compounds below were run on OGD-injuried neurons (primary cortical neurons) (assay: Cell viability assay: LDH release by OGD-injured primary cortical neurons). Conditions: Mus musculus, Primary cortical neuron; drug concentration 10^−6 M/L; OGD 2 hours, LDH after 8 hours.
Type: cell-based, mice
Procedure: After primary neurons were cultured for 9 days, the medium was replaced by DMEM high glucose medium containing 1% FBS, serum-starved overnight and then washed twice with OGD culture solution. This OGD culture solution contains DMEM medium, 1% FBS, 1% penicillin/streptomycin and B27, and contains no sugar. Then, the primary neurons were incubated with the test drugs for 30 minutes, OGD culture solution was added into an anaerobic tank and oxygen-deprived for 2 hours. The OGD culture solution was discarded, and replaced by oxygen-saturated DMEM medium containing 1% FBS, 1% penicillin/streptomycin and B27. After 8 hours the culture solution was collected to measure LDH level.
After the primary cortical neurons were treated with various processes, neuronal culture solution in six-well plates was pipetted to a 1.5 mL plastic centrifuge tube; cells were washed three times with PBS solution and each well was added PBS 1000 μl. The cells were freezed and thawed repeated for three times, centrifuged at 12000′ g for 5 minutes at 4° C., and the supernatant was removed for use. The activity of LDH enzyme was determined with 50 μl culture solution and 25 μl supernatant using lactate dehydrogenase kit.
Protective Effects of the Objective Compounds Against Primary Cortical Neuronal Injury Cultured In Vitro (See Table 2)

Structure (SMILES) | inhibition at 1 µM [%]
CCCC(=O)Oc1cc(NCc2cc(C(F)(F)F)cc(Cl)c2O)ccc1C(=O)OC1CC2CCC1(C)C2(C)C (stereo not shown) [ZL006-52, bornyl-2-butyryloxy-4-(2-hydroxy-3-chloro-5-trifluoromethylbenzyl)aminobenzoate] | 40.5
CC1(C)C2CCC1(C)C(OC(=O)c1cc(NCc3cc(F)cc(Cl)c3O)ccc1O)C2 (stereo not shown) [ZL006-56, bornyl-2-hydroxy-5-(2-hydroxy-3-chloro-5-fluorobenzyl)aminobenzoate] | 50
CCCC(=O)Oc1cc(NCc2cc(F)cc(Cl)c2O)ccc1C(=O)OC1CC2CCC1(C)C2(C)C (stereo not shown) [ZL006-60, bornyl-2-butyryloxy-4-(2-hydroxy-3-chloro-5-fluorobenzyl)aminobenzoate] | 68.4

Same assay, conditions: drug concentration 10^−6 M/L; OGD 2 hours, LDH after 8 hours

Structure (SMILES) | Inhibition of LDH release (%)
CN(Cc1cc(C(F)(F)F)cc(Cl)c1O)c1ccc(C(=O)OC2CC3CCC2(C)C3(C)C)c(O)c1 (stereo not shown) [ZL006-53, bornyl-2-hydroxy-4-[N-(2-hydroxy-3-chloro-5-trifluoromethylbenzyl)-N-methyl]aminobenzoate] | 61.1
CC(=O)N(Cc1cc(C(F)(F)F)cc(Cl)c1O)c1ccc(C(=O)OC2CC3CCC2(C)C3(C)C)c(O)c1 (stereo not shown) [ZL006-54, bornyl-2-hydroxy-4-[N-(2-hydroxy-3-chloro-5-trifluoromethylbenzyl)-N-acetyl]aminobenzoate] | 74.2
CC1(C)C2CCC1(C)C(OC(=O)c1ccc(NCc3cc(F)cc(Cl)c3O)cc1O)C2 (stereo not shown) [ZL006-55, bornyl-2-hydroxy-4-(2-hydroxy-3-chloro-5-fluorobenzyl) aminobenzoate] | 36.3
COc1cc(NCc2cc(F)cc(Cl)c2O)ccc1C(=O)OC1CC2CCC1(C)C2(C)C (stereo not shown) [ZL006-57, bornyl-2-methoxy-4-(2-hydroxy-3-chloro-5-fluorobenzyl) aminobenzoate] | 23.6
CCCCOc1cc(NCc2cc(F)cc(Cl)c2O)ccc1C(=O)OC1CC2CCC1(C)C2(C)C (stereo not shown) [ZL006-58, bornyl-2-n-butoxy-4-(2-hydroxy-3-chloro-5-fluorobenzyl) aminobenzoate] | 25.1
CC(=O)Oc1cc(NCc2cc(F)cc(Cl)c2O)ccc1C(=O)OC1CC2CCC1(C)C2(C)C (stereo not shown) [ZL006-59, bornyl-2-acetyloxy-4-(2-hydroxy-3-chloro-5-fluorobenzyl) aminobenzoate] | 61.7
CN(Cc1cc(F)cc(Cl)c1O)c1ccc(C(=O)OC2CC3CCC2(C)C3(C)C)c(O)c1 (stereo not shown) [ZL006-61, bornyl-2-hydroxy-4-[N-(2-hydroxy-3-chloro-5-fluorobenzyl)-N-methyl]aminobenzoate] | 56.5
CC(=O)N(Cc1cc(F)cc(Cl)c1O)c1ccc(C(=O)OC2CC3CCC2(C)C3(C)C)c(O)c1 (stereo not shown) [ZL006-62, bornyl-2-hydroxy-4-[N-(2-hydroxy-3-chloro-5-fluorobenzyl)-N-acetyl]aminobenzoate] | 50.1
CC1(C)C2CCC1(C)C(OC(=O)c1ccc(NCc3cc(Br)ccc3O)cc1O)C2 (stereo not shown) [ZL006-63, bornyl-2-hydroxy-4-(2-hydroxy-5-bromobenzyl) aminobenzoate] | 22.8
COc1cc(NCc2cc(Br)ccc2O)ccc1C(=O)OC1CC2CCC1(C)C2(C)C (stereo not shown) [ZL006-64, bornyl-2-methoxy-4-(2-hydroxy-5-bromobenzyl) aminobenzoate] | 25.4
CC(=O)Oc1cc(NCc2cc(Br)ccc2O)ccc1C(=O)OC1CC2CCC1(C)C2(C)C (stereo not shown) [ZL006-65, bornyl-2-acetyloxy-4-(2-hydroxy-5-bromobenzyl) aminobenzoate] | 38.2
CC1(C)C2CCC1(C)C(OC(=O)c1ccc(NCc3cc(Cl)ccc3O)cc1O)C2 (stereo not shown) [ZL006-66, bornyl-2-hydroxy-4-(2-hydroxy-5-chlorobenzyl) aminobenzoate] | 13.3
COc1cc(NCc2cc(Cl)ccc2O)ccc1C(=O)OC1CC2CCC1(C)C2(C)C (stereo not shown) [ZL006-67, bornyl-2-methoxy-4-(2-hydroxy-5-chlorobenzyl) aminobenzoate] | 0.4
